Laboratory results from patent US20060167057A1, “Compounds for the treatment of CNS and amyloid associated diseases” (priority 2004, published 2006).

Target: T1, L1 transport system (large neutral amino acid carrier, L1-system carrier) (Rattus norvegicus, UniProt Q63016)
T1 construct: functionality of their endogenous transporters such as the L1-system carrier; endogenous in cells; host or cells: rat primary cerebrovascular (brain microcapillary) endothelial cells, RBEC
Experiment: Competitive binding assay to the brain L1 transport system (L-[U-14C]phenylalanine on rat primary cerebrovascular endothelial cells)
Conditions: for Status of Binding: compounds of Example 4, 10^−6, 10^−5 and 10^−4, Δ versus phenylalanine
Method: Compound samples in PBS (without Ca^+2, Mg^+2)-glucose 30 mM-HEPES 10 mM—DMSO 1% as prepared in Example 1 were thawed and left for at least 30 minutes at 20-23° C. before preparation of the following sub-dilutions for the competitive binding assay: • 200 μL of the stock solution were added to 800 μL PBS (without Ca^+2, Mg^+2)-Glucose-HEPES-1% DMSO (PBSD-1) [diluted 1:5 for a final 1:5 dilution] • 100 μL (1/5 dilution above) were added to 900 μL PBSD-1 [diluted 1:10 for a final 1:50 dilution] • 100 μL (1/50 dilution above) were added to 900 μL PBSD-1 [diluted 1:10 for a final 1:500 dilution]
These sub-dilutions were used immediately or stored overnight at 4° C. before the competitive binding assay. A volume of 45 μL of each of the compound dilutions (1:5, 1:50, 1:500) in PBSD-1 was added to the appropriate wells in the dilution plate.
Brains from sixty 24-day-old rats were dissected individually on a sterile lint moistened with ice cold Hanks' balanced salt solution (Gibco BRL, Grand Island, N.Y.) containing 10 mM HEPES (medium 1) supplemented with 0.1% BSA. Cerebellum, striatum, optic nerves, and brain stem (white matter) were removed. After a mid-sagittal section of the brain, the meninges and leptomeningeal debris were removed by rolling a sterile dry cotton swab on the cortices. (Ichikawa N, Naora K, Hirano H, Hashimoto M, Masumura S, and Iwamoto K (1996). Isolation and primary culture of rat cerebral microvascular endothelial cells for studying drug transport in vitro. J Pharmacol Toxicol Meth 36: 45-52.). Clean cortices were minced in pieces of ≈2 mm^3 in 15 mL of ice-cold medium 1-0.1% BSA. The preparation was divided into 4 sterile pre-weighed tubes and centrifuged at 330× g at 20-25° C. for 5 min. Tubes were weighed and pre-warmed (37° C.) and medium 1 with 0.5% BSA containing 0.3% collagenase and 10 μg/mL DNAse 1 (Roche, Laval, Quebec, Canada) were added to each tube (1 mL/g of tissue).
The brain-collagenase mixture was vigorously agitated in a water bath at 37° C. for 90 min. Fifteen min before the end of the digestion, the tissue was homogenized using a 10-mL pipette until a creamy mixture was obtained (≈20 aspirations). Cells were washed by adding medium 1 with 0.1% BSA to the homogenate (26 mL/tube) and centrifuged at 100× g at 20-25° C. for 7 min. This washing step was repeated 3 more times, once for 5 min and twice for 3 min. Each pellet was re-suspended in 25 mL of a 15% dextran solution prepared in medium 1 with 0.1% BSA and centrifuged at 3200× g at 4° C. for 25 min to isolate vessels from neural tissue and dextran layers. Vascular pellets were re-suspended in 5 mL Ca^++—Mg^++-free-medium 1 with 0.1% BSA (medium 2) at 20-25° C. and transferred in a 50-mL tube. Remaining vessels were collected by rinsing the tubes and pooling the rinsing suspension. (Rupnick M A, Carey A, and Williams S K (1988). Phenotypic diversity in cultured cerebral microvascular endothelial cells in vitro. Cell Develop Biol 24: 435-444.)
The vascular preparation was filtered and rinsed (20 mL of medium 2) through a sterile 355-μm mesh. The 355-μm filtrate was sequentially filtered twice (20 mL of medium 2) through sterile 112-μm meshes and rinsed (Stanimirovic D B, Wong J, Ball R, and Durkin J P (1995). Free radical-induced endothelial membrane dysfunction at the site of the blood-brain barrier: relationship between lipid peroxidation, Na,K-ATPase activity, and ^51Cr release. Neurochem Res 20:1417-1427.) and the latter filtrate was filtered and rinsed through a sterile 20-μm mesh. A final step of filtration and rinse was repeated through a double layer of 20-μm meshes. All 20-μm meshes, which retained the microcapillaries, were then transferred into a 50-mL tube containing 20 mL of a 0.1% collagenase/dispase (Roche) solution in medium 2 supplemented with 10 μg/mL DNAse 1 and 0.147 μg/mL tosyl-lysine-chloromethyl-ketone (Sigma Chemical Co., Oakville, Ontario, Canada) (medium 3).

T1 sequence (Q63016 whole entry): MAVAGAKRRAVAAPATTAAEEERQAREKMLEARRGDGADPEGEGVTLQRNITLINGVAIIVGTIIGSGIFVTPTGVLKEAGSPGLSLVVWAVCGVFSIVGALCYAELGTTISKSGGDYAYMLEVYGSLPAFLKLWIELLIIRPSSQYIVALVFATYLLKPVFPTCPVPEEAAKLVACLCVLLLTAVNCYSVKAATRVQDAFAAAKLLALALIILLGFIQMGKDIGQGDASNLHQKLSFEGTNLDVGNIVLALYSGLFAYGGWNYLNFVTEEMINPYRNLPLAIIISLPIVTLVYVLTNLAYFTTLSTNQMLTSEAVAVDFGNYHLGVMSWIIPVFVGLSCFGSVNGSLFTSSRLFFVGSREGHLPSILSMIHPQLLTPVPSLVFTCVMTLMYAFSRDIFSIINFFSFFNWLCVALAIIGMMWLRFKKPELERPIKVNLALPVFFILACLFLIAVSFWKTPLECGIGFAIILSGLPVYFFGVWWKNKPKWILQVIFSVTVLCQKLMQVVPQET
T1 sequence (Q794F9 whole entry partner): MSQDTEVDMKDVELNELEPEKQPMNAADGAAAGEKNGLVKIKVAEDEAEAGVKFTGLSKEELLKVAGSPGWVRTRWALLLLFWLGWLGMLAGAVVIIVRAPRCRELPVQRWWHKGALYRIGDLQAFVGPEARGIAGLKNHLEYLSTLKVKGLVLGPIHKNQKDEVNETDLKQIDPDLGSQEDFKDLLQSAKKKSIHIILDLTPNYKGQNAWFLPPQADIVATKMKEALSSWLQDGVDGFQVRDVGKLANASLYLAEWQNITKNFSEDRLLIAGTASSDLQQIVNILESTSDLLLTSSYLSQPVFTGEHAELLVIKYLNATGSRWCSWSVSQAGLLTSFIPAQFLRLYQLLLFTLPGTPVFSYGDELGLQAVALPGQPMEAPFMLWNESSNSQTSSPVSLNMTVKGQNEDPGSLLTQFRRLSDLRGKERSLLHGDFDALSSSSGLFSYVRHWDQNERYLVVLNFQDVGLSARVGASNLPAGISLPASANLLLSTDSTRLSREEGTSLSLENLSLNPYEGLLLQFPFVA

Compound | Comparison with the Binding of Phenylalanine (10^−4 M) | Comparison with the Binding of Phenylalanine (10^−5 M) | Comparison with the Binding of Phenylalanine (10^−6 M) | Status of Binding
N[C@@H](Cc1ccccc1)C(=O)NC(Cc1cccc(CSc2nc3ccccc3o2)n1)C(=O)O (stereo partly drawn) [Compound 32] | 0 (X < 0 Rank 0) | 1 (0 < X < 10 Rank 1) | 3 (X > 20 Rank 3) | 
NC(Cc1cccc(CSc2nc(-c3ccccc3)c(-c3ccccc3)o2)n1)C(=O)O (stereo not drawn) [Compound 119] | 2 (10 < X < 20 Rank 2) | 3 (X > 20 Rank 3) | 1 (0 < X < 10 Rank 1) | 
N[C@@H](Cc1ccccc1)C(=O)NC(Cc1cccc(CSc2nc3ccccc3[nH]2)n1)C(=O)O (stereo partly drawn) [Compound 29] | 0 (X < 0 Rank 0) | 1 (0 < X < 10 Rank 1) | 3 (X > 20 Rank 3) | 
NC(=O)C(N)Cc1cccc(CSc2nccc(C(F)(F)F)n2)n1 (stereo not drawn) [Compound 22] | 0 (X < 0 Rank 0) | 1 (0 < X < 10 Rank 1) | 0 (X < 0 Rank 0) | 
Cc1nnc(Sc2cccc(-c3cccc(CC(N)C(=O)O)c3)c2)s1 (stereo not drawn) [Compound 111] | 2 (10 < X < 20 Rank 2) | 3 (X > 20 Rank 3) | 3 (X > 20 Rank 3) | 
N[C@@H](Cc1cccc(CSc2nc3ccc(Cl)cc3s2)n1)C(=O)O [drawing 477] |  |  |  | 1 (1: −10 > Δ > −50%, lower binding affinity than phenylalanine)
N[C@@H](Cc1ccccc1)C(=O)NC(Cc1cccc(CSc2nnnn2-c2ccc(O)cc2)c1)C(=O)O (stereo partly drawn) [Compound 50] | 0 (X < 0 Rank 0) | 2 (10 < X < 20 Rank 2) | 2 (10 < X < 20 Rank 2) | 
N[C@@H](Cc1ccccc1)C(=O)NC(Cc1cccc(CSc2ncc[nH]2)c1)C(=O)O (stereo partly drawn) [Compound 7] | 0 (X < 0 Rank 0) | 0 (X < 0 Rank 0) | 2 (10 < X < 20 Rank 2) | 
O=C(NC(Cc1cccc(CSc2nccc(O)n2)c1)C(=O)O)NC(c1ccccc1)c1ccccc1 (stereo not drawn) [Compound 17] | 1 (0 < X < 10 Rank 1) | 1 (0 < X < 10 Rank 1) | 2 (10 < X < 20 Rank 2) | 
O=C(Nc1ccc(-c2ccccc2)cc1)NC(Cc1cccc(CSc2ncc[nH]2)c1)C(=O)O (stereo not drawn) [Compound 52] | 0 (X < 0 Rank 0) | 0 (X < 0 Rank 0) | 1 (0 < X < 10 Rank 1) | 
Cn1cnnc1SCc1cccc(CC(N)C(=O)O)n1 (stereo not drawn) [Compound 156] | 1 (0 < X < 10 Rank 1) | 1 (0 < X < 10 Rank 1) | 2 (10 < X < 20 Rank 2) | 
NC(=O)C(N)Cc1cccc(CSc2cncc3c(C(F)(F)F)cccc23)n1 (stereo not drawn) [Compound 25] | 0 (X < 0 Rank 0) | 1 (0 < X < 10 Rank 1) | 0 (X < 0 Rank 0) | 
N[C@@H](Cc1cccc(C[S+]([O-])c2nnnn2-c2ccccc2)c1)C(=O)O (stereo partly drawn) [drawing 475] |  |  |  | 3 (3: Δ > 10%, significantly higher binding affinity than phenylalanine)
N[C@@H](Cc1ccccc1)C(=O)NC(Cc1cccc(CSc2nnnn2-c2ccccc2)c1)C(=O)O (stereo partly drawn) [Compound 53] | 0 (X < 0 Rank 0) | 2 (10 < X < 20 Rank 2) | 2 (10 < X < 20 Rank 2) | 
O=C(Nc1ccc(-c2ccccc2)cc1)NC(Cc1cccc(CSc2nc3ccccc3[nH]2)n1)C(=O)O (stereo not drawn) [Compound 62] | 0 (X < 0 Rank 0) | 0 (X < 0 Rank 0) | 3 (X > 20 Rank 3) | 
N[C@@H](Cc1cccc(CS(=O)(=O)c2nc3ccccc3[nH]2)c1)C(=O)O [drawing 478] |  |  |  | 2 (2: 10% ≧ Δ ≧ −10% similar binding affinity to phenylalanine)
Cc1nnc(SCc2cccc(CC(N)C(=O)O)c2)s1 (stereo not drawn) [Compound 81] | 2 (10 < X < 20 Rank 2) | 3 (X > 20 Rank 3) | 0 (X < 0 Rank 0) | 
COc1ccc2[nH]c(Sc3cccc(-c4cccc(CC(N)C(=O)O)c4)c3)nc2c1 (stereo not drawn) [Compound 76] | 0 (X < 0 Rank 0) | 0 (X < 0 Rank 0) | 1 (0 < X < 10 Rank 1) | 
CCOC(=O)c1c[nH]c(Sc2cccc(-c3cccc(CC(N)C(=O)O)c3)c2)nc1=O (stereo not drawn) [Compound 72] | 1 (0 < X < 10 Rank 1) | 2 (10 < X < 20 Rank 2) | 1 (0 < X < 10 Rank 1) | 

The next lines start with results.

Comparison with the Binding of Phenylalanine (10^−4 M) | Comparison with the Binding of Phenylalanine (10^−5 M) | Comparison with the Binding of Phenylalanine (10^−6 M) | Compound | Status of Binding
0 (X < 0 Rank 0) | 0 (X < 0 Rank 0) | 1 (0 < X < 10 Rank 1) | NC(Cc1cccc(-c2cccc(Sc3nnnn3CC(=O)O)c2)c1)C(=O)O (stereo not drawn) [Compound 138] | 
3 (X > 20 Rank 3) | 3 (X > 20 Rank 3) | 2 (10 < X < 20 Rank 2) | NC(Cc1ccc(-c2ccc(CSc3nc(-c4ccccc4)c(-c4ccccc4)[nH]3)cc2)cc1)C(=O)O (stereo not drawn) [Compound 149] | 
0 (X < 0 Rank 0) | 1 (0 < X < 10 Rank 1) | 1 (0 < X < 10 Rank 1) | NC(Cc1ccc(-c2ccc(CN3CCN(c4ccc(F)cc4)CC3)cc2)cc1)C(=O)O (stereo not drawn) [Compound 120] | 
0 (X < 0 Rank 0) | 0 (X < 0 Rank 0) | 2 (10 < X < 20 Rank 2) | NC(Cc1cccc(CSc2ccc3ccccc3n2)c1)C(=O)O (stereo not drawn) [Compound 114] | 
3 (X > 20 Rank 3) | 3 (X > 20 Rank 3) | 3 (X > 20 Rank 3) | NC(Cc1cccc(CSc2nnc(-c3ccccc3)[nH]2)c1)C(=O)O (stereo not drawn) [Compound 13] | 
0 (X < 0 Rank 0) | 0 (X < 0 Rank 0) | 2 (10 < X < 20 Rank 2) | NC(Cc1cccc(-c2cccc(N3CCN(c4ccccn4)CC3)c2)c1)C(=O)O (stereo not drawn) [Compound 113] | 
0 (X < 0 Rank 0) | 0 (X < 0 Rank 0) | 1 (0 < X < 10 Rank 1) | NC(Cc1cccc(CN2CCN(c3cccc(Cl)c3)CC2)c1)C(=O)O (stereo not drawn) [Compound 71] | 
0 (X < 0 Rank 0) | 1 (0 < X < 10 Rank 1) | 0 (X < 0 Rank 0) | NC(Cc1ccc(-c2ccc(CN3CC=CCC3)cc2)cc1)C(=O)O (stereo not drawn) [Compound 44] | 
1 (0 < X < 10 Rank 1) | 2 (10 < X < 20 Rank 2) | 0 (X < 0 Rank 0) | CC(=O)c1ccc(N2CCN(Cc3cccc(CC(N)C(=O)O)n3)CC2)cc1 (stereo not drawn) [Compound 127] | 
